Patent US6596498B1, “Bone stimulating factor” (Osteopharm Inc., priority 1993, dated 2003)
“Also recorded” adds a separate entry of the source. Ends that are not written are not given here.

How the values were obtained:
[1] = 24 mg/kg of body weight intravenously, rat; serum level by bioassay; cited from earlier work
[2] = system: ovariectomized rats; assay: Autopsy of ovariectomized rats after daily peptide injection; type: in vivo, rat; conditions: 100 μg s.c. daily for eight weeks
Procedure: The six ovariectomized rats were injected subcutaneously with 100 μl of a 0.1% acetic acid solution containing 100 μg of the chemically synthesized peptide (SEQ ID NO:11) every 24 hours for 28 days. […] Postmortem blood was taken by cardiac puncture and serum frozen until analyzed. A full autopsy was performed on each rat. […] Eight weeks after ovariectomization, five ovariectomized rats were injected subcutaneously with 100 μl of a 0.1% acetic acid solution containing 100 μg of the chemically synthesized peptide in which the N-terminal amino group was modified with an acetyl group (SEQ ID NO:12). This was done every 24 hours for eight weeks. […] Postmortem blood was taken by cardiac puncture and serum frozen until analyzed. An autopsy was performed on each rat.

[3] = system: parathyroidectomized rats; assay: Histological evaluation of selected tissues for toxic lesions after miniosmotic pump implantation; type: in vivo, rat; conditions: about 25 μg per day by miniosmotic pump, about 31 days
Procedure: A miniosmotic pump (Alzet) was loaded with about 1.5 ml of the chemically synthesized peptide having an N-terminal acetyl group (SEQ ID NO:12) in 0.1% acetic acid so as to give a calculated daily delivery of about 25 μg per day. A pump was implanted under the subcutaneous fascia of the dorsal aspect of the left side of the thorax of five rats which had been parathyroidectomized seven days earlier. Five similarly parathyroidectomized rats received similar implants containing only 0.1% acetic acid. Five intact rats were also used as controls.
Histological evaluation of selected tissues of the five rats of each of the groups indicated in Table Four were carried out microscopically.

[4] = system: intact rats; assay: Bone mineral apposition rate by tetracycline labelling in intact rats; type: in vivo, rat
[5] = system: ovariectomized rats; assay: Right femoral bone calcium density of ovariectomized rats; type: in vivo, rat
Procedure: Ovariectomies were performed on six female Sprague-Dawley rats, each sedated with 1 mg of sodium barbiturate I.P. Sham operations were carried out a second group of six rats. The rats were given two weeks to recover from the operations. The six ovariectomized rats were injected subcutaneously with 100 μl of a 0.1% acetic acid solution containing 100 μg of the chemically synthesized peptide (SEQ ID NO:11) every 24 hours for 28 days. […] The right femur of each rat was decalcified separately. The decalcification fluid consisted of 10% formic acid (v/v) and 5% sodium citrate (w/v) at pH 3.0. Each bone was placed in 6 ml of the decalcification fluid. The fluid was […] days, again after another 4 days, again after another 2 days, and again after another 3 days. After another 2 days, the decalcification fluid was removed and replaced by deionized water, and the sample agitated for 2 days. The water changed after two days and again after another day. […] The volume of each right femur was determined by determining the volume of water displaced when the bone was immersed in water. The calcium concentration of each sample was determined according to standard methods and the calcium density of each bone calculated. […] The right femurs were decalcified and calcium density determined as before.

[6] = system: ovariectomized rats; assay: Bone mineral apposition rate in ovariectomized rats; type: in vivo, rat; conditions: 100 μg s.c. every 24 hours for 28 days; lower metaphysis of left femur; untreated OVX 0.59, sham 0.85, intact 0.86
Procedure: Ovariectomies were performed on six female Sprague-Dawley rats, each sedated with 1 mg of sodium barbiturate I.P. Sham operations were carried out a second group of six rats. The rats were given two weeks to recover from the operations. The six ovariectomized rats were injected subcutaneously with 100 μl of a 0.1% acetic acid solution containing 100 μg of the chemically synthesized peptide (SEQ ID NO:11) every 24 hours for 28 days. […] A second group of six ovariectomized rats, was similarly treated with a 0.1% acetic acid solution containing no peptide over the same 28 day period. A third group of six rats, each of which had undergone the sham operation, was similarly treated with a 0.1% acetic acid solution containing no peptide over the same 28 day period. A fourth group of six intact rats was similarly treated with a 0.1% acetic acid solution containing no peptide over the same 28 day period. The bone mineral apposition rate was determined, as described previously, by measurement of the lower metaphysis of the left femur. The results are tabulated in Table Six and graphically depicted in FIG. 25.

[7] = system: intact rats; assay: Bone mineral apposition rate by tetracycline labelling in intact rats; type: in vivo, rat; remark: listed apart in the source
Excerpt: Tetracycline is excited by long UV light (i.e., with a range close to the blue range) and a bright yellow fluorescence is emitted, which fluorescence is detectable in bone sections viewed with a fluorescence microscope. Tetracycline labels a bone surface when a newly formed collagen matrix begins to incorporate calcium and when such surface is sectioned, the tetracycline appears as a yellow fluorescent band. A subsequently administered dose of tetracycline appears as a second band located superficial to the first band. The distance between the two bands represent the thickness of bone matrix formed in the interval between the two doses. The rate of bone deposition can be calculated by dividing the distance with the time interval between doses. Errors can be introduced by cuts which are not perpendicular to the growing bone surface. To reduce this error, only sites in which the two bands were distinct and parallel to each other were used. Measurements made on 10 randomly chosen sites fulfilling this requirement were chosen to give readings close to the arithmetic mean of the rate.
The measuring system used was a Leitz scanning light microscope photometer MPV-CD with a UV source being provided by a 100 W stabilized mercury burner. Sections were generally magnified using 16× objective using a moving scanning slit, the intensity of the fluorescent band was amplified and recorded. The light signal was transformed into digital output and the profile of the tetracycline intensity recorded. The instrument carries a mechanical error of less than 5%. The distance measured was periodically calibrated with a microscopic grid and a good correlation was found, as shown in FIG. 2.
Intact 400-420 g male rats were used for testing. A control group received the carrier buffer of 50 mM sodium phosphate (pH 7.2). […]
The unstained plastic embedded sections were viewed under a fluorescence microscope with a ×16 objective and ×10 eyepieces systematically to cover the trabecular bone in the space enclosed by the endosteal surface. […]

[8] = 0.1 ml of 1 mg per ml solution, subcutaneous, right thigh, lower metaphysis of right femur, control 1.02

Which “clearance from the circulation” value [1] does the source give for `CN(C)[C@@H]1C(O)=C(C(N)=O)C(=O)[C@@]2(O)C(O)=C3C(=O)c4c(O)cccc4[C@@](C)(O)[C@H]3C[C@@H]12` [tetracycline] here?
The value was “cleared from the circulation within half an hour”.

With “Ac-GIGKRTNEHTADCKIKPNTLHKKAAETLMVLDQNQP [SEQ ID NO:12]” as the molecule, how does the pathology at autopsy [2] read?
Its pathology at autopsy is “No obvious pathology was observed”.

And the “histological evaluation of selected tissues (toxic lesions)” value [3]?
Its value is “No evidence of toxic lesions was found”.

Which bone apposition rate ([4]; 0.1 ml of 1 mg per ml solution s.c., compared with control and normal peptide) does the source give for “GIGKRTNEHTADAKIKPNTLHKKAAETLMVLDQNQP [SEQ ID NO:13]” here?
The bone apposition rate was “significantly greater than that for those of the control group but below the bone apposition rate shown for the rats injected with the normal peptide”.

What about the “bone mineral apposition rate, Mean” value [4, 8] of the same molecule?
The value was 1.35 μm/d.

For “GIGKRTNEHTADCKIKPNTLHKKAAETLMVLDQNQP [SEQ ID NO:11]”, which bone calcium concentration ([5]; 100 μg s.c. daily for 28 days, ovariectomized rats) is on record?
Its bone calcium concentration is “appears to be normal”.

And the “Right Femoral Calcium Concentration, Mean” value ([5]; 100 μg s.c. every 24 hours for 28 days, starting two weeks after ovariectomy, untreated OVX 6.61, sham 7.45, intact 7.69)?
Its value is 7.57 µmol/mL.

And the “bone mineral apposition rate, Mean” value ([4]; 50 μg single intramuscular injection, lower femoral epiphysis, control 0.85)?
The value was 1.15 μm/day.

And the “bone mineral apposition rate, Mean” value ([4]; 100 μg single intramuscular injection, lower femoral epiphysis, control 0.85)?
The value was 1.32 μm/day.

What about the “bone mineral apposition rate, Mean” value [4, 8] of the same molecule?
Its value is 1.67 μm/d.

And the “dose dependency of stimulant effect” value ([4]; 25-100 μg, intramuscular)?
The value was “increases with the amount of peptide administered”.

What about the “bone mineral apposition rate, Mean” value [6] of the same molecule?
The value was 0.90 μm/day.

What about the “bone apposition rate, Mean” value ([7]; 25 μg in 1 ml, single intramuscular injection, lower metaphysis of right femur, vehicle control 1.03) of the same molecule?
The value was 1.35 μm/d.

And the “bone mineral apposition rate, Mean” value ([7]; 25 μg single intramuscular injection, lower femoral epiphysis, control 0.85)?
The value was 1.05 μm/day.

Which “effect on bone formation” value ([7]; 0.7 and 0.3 O.D. (280 nm) units injected, intact 400-420 g male rats vs carrier buffer) does the source give for “expressed polypeptide: human polypeptide (SEQ ID NO:11 sequence) expressed in E. coli JM 103 from pUC 8 plasmid, purified by C3 HPLC (GIGKRTNEHTADCKIKPNTLHKKAAETLMVLDQNQP)” here?
The value was “appears to have a stimulant effect on bone formation; also recorded: showed biological activity”.
